This experiment concerns the target T1, memapsin 2 (Homo sapiens, UniProt P56817).
T1 construct: pET-11 vector-derived residues 1-15 of promemapsin 2-T1 (N, cleaved yes); made in house; host or cells: E. coli
Nature of the experiment: Inhibition of memapsin 2 proteolytic activity, fluorogenic substrate FS-2. It counts as biochemical. The procedure, abridged: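 Spontaneously activated memapsin 2 (80 nM final) equilibrated with inhibitor (about 10 nM–10 μM) in 0.1 M NaOAc pH 4.0 with 10% DMSO for 20 min at 37 °C, with fluorogenic substrate FS-2. Ki converted from Ki apparent using substrate concentration and Km.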

[1] abbreviates: memapsin 2, apparent Ki in presence of substrate FS-2, read-out: Ki app.
The mark [2] stands for this setting: memapsin 2, independent of substrate, converted from Ki apparent, read-out: Ki.
The mark [3] stands for this setting: Ki, [I] < 100, memapsin 2, [I] < 100 (nM).

The structures appear in SMILES notation. Read-outs that look alike come from different tables or passages of the source. *1 amine or outer side, *2 acyl side, *3 side chain or, on linkers, in order; H or OH if unused. Where a SMILES comes first, the peptide text is derived from it. [ ]: non-standard residue; d: D form. LeuΨ(S-CHOHCH2)Ala = CC(C)C[C@H](N[*:1])[C@@H](O)C[C@@H](C)C(=O)[*:2]

T1 sequence (P56817 41-454 limits assumed): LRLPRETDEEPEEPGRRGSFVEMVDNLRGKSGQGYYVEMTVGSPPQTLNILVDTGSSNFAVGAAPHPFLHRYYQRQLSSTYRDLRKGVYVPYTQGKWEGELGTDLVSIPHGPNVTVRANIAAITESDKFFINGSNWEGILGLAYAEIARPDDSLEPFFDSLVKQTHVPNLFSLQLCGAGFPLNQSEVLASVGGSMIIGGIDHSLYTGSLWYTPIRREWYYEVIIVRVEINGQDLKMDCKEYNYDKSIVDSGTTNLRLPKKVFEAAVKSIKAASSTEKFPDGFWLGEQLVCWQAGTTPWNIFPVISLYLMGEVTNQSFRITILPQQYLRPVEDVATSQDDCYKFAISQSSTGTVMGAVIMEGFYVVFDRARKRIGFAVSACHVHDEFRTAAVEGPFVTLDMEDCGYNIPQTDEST

Turning to `COCOCC[C@H](NC(=O)[C@H](CC(C)C)NC(=O)OC(C)(C)C)C(=O)N[C@@H](CC(C)C)[C@@H](O)C[C@@H](C)C(=O)N[C@@H](CC(C)C)C(=O)NC(C)C` [MMI-190], the Ki is 29.1 nM under setting [1] and 18.2 nM under setting [2].

For the compound `CSCC[C@H](NC(=O)[C@@H](NC(=O)OC(C)(C)C)C(C)C)C(=O)N[C@@H](CC(C)C)[C@@H](O)C[C@]1(C)CCN([C@@H](CC(C)C)C(=O)NCC(C)C)C1=O` [MMI-191], the Ki app entry (memapsin 2, apparent Ki in presence of substrate FS-2) is “N.I”. Further, the Ki result (memapsin 2, independent of substrate, converted from Ki apparent) was “N.I”.

As for `CSCC[C@H](NC(=O)[C@@H](NC(=O)OC(C)(C)C)C(C)C)C(=O)N[C@@H](CC(C)C)[C@@H](O)C[C@]1(C)CCN([C@H](C(=O)N2CCN(C)CC2)C(C)C)C1=O` [MMI-192], the Ki was 374 nM under setting [1] and 234 nM under setting [2].

With `CSCC[C@H](NC(=O)OCc1cc(C)nn1C)C(=O)N[C@@H](CC(C)C)[C@@H](O)C[C@@H](C)C(=O)N[C@H](C(=O)NCC(C)C)C(C)C` [MMI-193], the Ki by setting is: under setting [1], 288 nM; under setting [2], 180 nM.

As for `CSCC[C@H](NC(=O)CCn1nc(C)cc1C)C(=O)N[C@@H](CC(C)C)[C@@H](O)C[C@@H](C)C(=O)N[C@H](C(=O)NCC(C)C)C(C)C` [MMI-194], the Ki under setting [1] was 62.3 nM and the Ki under setting [2] stood at 38.9 nM.

For `CSCC[C@H](NC(=O)C(C)Cn1nc(C)cc1C)C(=O)N[C@@H](CC(C)C)[C@@H](O)C[C@@H](C)C(=O)N[C@H](C(=O)NCC(C)C)C(C)C` (some centres unmarked) [MMI-195], the Ki runs as follows: under setting [1], 451 nM; under setting [2], 282 nM.

As for `CSCC[C@H](NC(=O)[C@@H](NC(=O)OC(C)(C)C)[C@H](C)O)C(=O)N[C@@H](CC(C)C)[C@@H](O)C[C@@H](C)C(=O)N[C@@H](CC(C)C)C(=O)NC(C)C` [MMI-197], the Ki reads like this: under setting [1], 94.5 nM; under setting [2], 59.1 nM.

In the case of `CSCC[C@H](NC(=O)[C@H](C(C)C)N1CCCNC1=O)C(=O)N[C@@H](CC(C)C)[C@@H](O)C[C@@H](C)C(=O)N[C@@H](CC(C)C)C(=O)NCC(C)C` [MMI-198], the Ki worked out at 756 nM under setting [1] and 473 nM under setting [2].

As for `COc1cccc(C(=O)N[C@@H](CSC)C(=O)N[C@@H](CC(C)C)[C@@H](O)C[C@@H](C)C(=O)N[C@@H](CC(C)C)C(=O)NC(C)C)c1OC` [MMI-199], the Ki under setting [3] is 190 nM, the Ki under setting [1] is 963 nM and the Ki under setting [2] amounted to 602 nM.

On to `CSCC[C@H](NC(=O)c1cccc(O)c1O)C(=O)N[C@@H](CC(C)C)[C@@H](O)C[C@@H](C)C(=O)N[C@@H](CC(C)C)C(=O)NC(C)C` [MMI-200], for which the Ki runs as follows: under setting [1], 1530 nM; under setting [2], 956 nM.

`CSCC[C@H](C[C@H](O)[C@H](Cc1ccccc1)NC(=O)[C@H](CCSC)NC(=O)[C@@H](NC(=O)OC(C)(C)C)C(C)C)C(=O)N[C@H](C(=O)NCc1ccccc1)C(C)C` [MMI-201]: the Ki came out at 58 nM under setting [1] and 36.2 nM under setting [2].

For `CSCC[C@H](NC(=O)[C@@H](NC(=O)OC(C)(C)C)C(C)C)C(=O)N[C@@H](CC(C)C)[C@@H](O)C[C@H](C(=O)N[C@H](C(=O)NCc1ccccc1)C(C)C)C(C)C` [MMI-202], the Ki is, setting by setting: under setting [1], 688 nM; under setting [2], 430 nM.

As for `CSCC[C@H](NC(=O)OCCn1nc(C)cc1C)C(=O)N[C@@H](CC(C)C)[C@@H](O)C[C@@H](C)C(=O)N[C@@H](CC(C)C)C(=O)NC(C)C` [MMI-203], the Ki runs as follows: under setting [1], 361 nM; under setting [2], 225 nM.

With `CC(C)C[C@H](NC(=O)OC(C)(C)C)C(=O)N[C@@H](CC1CCCO1)C(=O)N[C@@H](CC(C)C)[C@@H](O)C[C@@H](C)C(=O)N[C@@H](CC(C)C)C(=O)NC(C)C` (some centres unmarked) [MMI-205], the Ki came out at 48.8 nM under setting [1] and 30.5 nM under setting [2].

On to `COc1cccc(C(=O)N[C@@H](CCSC)C(=O)N[C@@H](CC(C)C)[C@@H](O)C[C@@H](C)C(=O)N[C@@H](CC(C)C)C(=O)NC(C)C)c1OC` [MMI-206], for which the Ki is, setting by setting: under setting [3], 292 nM; under setting [1], 1210 nM; under setting [2], 758 nM.

Take `COc1ccccc1C(=O)N[C@@H](CCSC)C(=O)N[C@@H](CC(C)C)[C@@H](O)C[C@@H](C)C(=O)N[C@@H](CC(C)C)C(=O)NC(C)C` [MMI-207]: the Ki was 1830 nM under setting [3], 1580 nM under setting [1] and 988 nM under setting [2].

`COc1ccc(C(=O)N[C@@H](CCSC)C(=O)N[C@@H](CC(C)C)[C@@H](O)C[C@@H](C)C(=O)N[C@@H](CC(C)C)C(=O)NC(C)C)cc1` [MMI-208]: the Ki is, setting by setting: under setting [3], 407 nM; under setting [1], 1950 nM; under setting [2], 1220 nM.

For the compound `COc1cccc(C(=O)N[C@@H](CCSC)C(=O)N[C@@H](CC(C)C)[C@@H](O)C[C@@H](C)C(=O)N[C@@H](CC(C)C)C(=O)NC(C)C)c1` [MMI-209], the Ki runs as follows: under setting [1], 1300 nM; under setting [2], 812 nM.

Turning to `CSCC[C@H](NC(=O)c1cccc(C)c1C)C(=O)N[C@@H](CC(C)C)[C@@H](O)C[C@@H](C)C(=O)N[C@@H](CC(C)C)C(=O)NC(C)C` [MMI-210], the Ki is, setting by setting: under setting [1], 899 nM; under setting [2], 562 nM.

For the compound `CSCC[C@H](NC(=O)[C@@H](NC(=O)OC(C)(C)C)C(C)C)C(=O)N[C@@H](CC(C)C)[C@@H](O)C[C@H](C(=O)N[C@@H](C)C(=O)NCc1ccccc1)C(C)C` [MMI-211], the Ki stood at 761 nM under setting [1] and 476 nM under setting [2].

As for `CSCC[C@H](NC(=O)OCn1nc(C)cc1C)C(=O)N[C@@H](CC(C)C)[C@@H](O)C[C@@H](C)C(=O)N[C@H](C(=O)NCc1ccco1)C(C)C` [MMI-212], the Ki under setting [1] amounted to 71.1 nM and the Ki under setting [2] is 44.5 nM.

As to `CSCC[C@H](NC(=O)CCn1nc(C)cc1C)C(=O)N[C@@H](CC(C)C)[C@@H](O)C[C@@H](C)C(=O)N[C@H](C(=O)NCc1ccco1)C(C)C` [MMI-213], the Ki reads like this: under setting [1], 84.6 nM; under setting [2], 52.9 nM.

Take `CSCC[C@H](NC(=O)C(C)Cn1nc(C)cc1C)C(=O)N[C@@H](CC(C)C)[C@@H](O)C[C@@H](C)C(=O)N[C@H](C(=O)NCc1ccco1)C(C)C` (some centres unmarked) [MMI-214]: the Ki by setting is: under setting [1], 19 nM; under setting [2], 11.9 nM.

As to `CC(C)C[C@H](NC(=O)OC(C)(C)C)C(=O)N[C@@H](CC1CCCO1)C(=O)N[C@@H](CC(C)C)[C@@H](O)C[C@@H](C)C(=O)N[C@@H](CC(C)C)C(=O)NC(C)C` (some centres unmarked) [MMI-215], the Ki was 30.9 nM under setting [1] and 19.3 nM under setting [2].

In the case of `CSCC[C@H](NC(=O)OCn1nc(C)cc1C)C(=O)N[C@@H](CC(C)C)[C@@H](O)C[C@@H](C)C(=O)N[C@@H](CC(C)C)C(=O)N1CCN(C)CC1` [MMI-216], the Ki runs as follows: under setting [1], 1200 nM; under setting [2], 753 nM.

Turning to `CSCC[C@H](NC(=O)OCn1nc(C)cc1C)C(=O)N[C@@H](CC(C)C)[C@@H](O)C[C@@H](C)C(=O)N[C@H](C(=O)N1CCN(C)CC1)C(C)C` [MMI-217], the Ki by setting is: under setting [1], 1070 nM; under setting [2], 670 nM.

Turning to `CCCCNC(=O)[C@@H](NC(=O)C(C)(C)C[C@H](O)[C@H](CC(C)C)NC(=O)[C@H](CCSC)NC(=O)OCn1nc(C)cc1C)C(C)C` [MMI-218], the Ki under setting [3] turned out to be 226 nM, the Ki under setting [1] stood at 1800 nM and the Ki under setting [2] worked out at 1120 nM.

In the case of `CSCC[C@H](NC(=O)OC(C)(C)Cn1nc(C)cc1C)C(=O)N[C@@H](CC(C)C)[C@@H](O)C[C@@H](C)C(=O)N[C@@H](CC(C)C)C(=O)NC(C)C` [MMI-219], the Ki by setting is: under setting [1], 1420 nM; under setting [2], 889 nM.

In the case of `CSCC[C@H](NC(=O)OCCn1nc(C)c2c1CCC2)C(=O)N[C@@H](CC(C)C)[C@@H](O)C[C@@H](C)C(=O)N[C@@H](CC(C)C)C(=O)NC(C)C` [MMI-220], the Ki is, setting by setting: under setting [1], 4490 nM; under setting [2], 2810 nM.

In the case of `CSCC[C@H](NC(=O)OCCn1nc(C)c2c1CSC2)C(=O)N[C@@H](CC(C)C)[C@@H](O)C[C@@H](C)C(=O)N[C@@H](CC(C)C)C(=O)NC(C)C` [MMI-221], the Ki worked out at 1910 nM under setting [1] and 1190 nM under setting [2].

Take `CSCC[C@H](NC(=O)OCCn1nc(C)c2c1CS(=O)(=O)C2)C(=O)N[C@@H](CC(C)C)[C@@H](O)C[C@@H](C)C(=O)N[C@@H](CC(C)C)C(=O)NC(C)C` [MMI-222]: the Ki is, setting by setting: under setting [1], 2450 nM; under setting [2], 1530 nM.

For `Cc1cc(C)n(CCOC(=O)N[C@@H](CCN2CCOCC2)C(=O)N[C@@H](CC(C)C)[C@@H](O)C[C@@H](C)C(=O)N[C@@H](CC(C)C)C(=O)NC(C)C)n1` [MMI-223], the Ki worked out at 8420 nM under setting [1] and 5280 nM under setting [2].

In the case of `CSCC[C@H](NC(=O)OCn1nc(C)cc1C)C(=O)N[C@@H](CC(C)C)[C@@H](O)C[C@@H](C)C(=O)N[C@@H](CC(C)C)C(=O)NC(C)C` [MMI-224], the Ki came to 70 nM under setting [1] and 43.8 nM under setting [2].

As to `CSCC[C@H](NC(=O)C(Cn1nc(C)cc1C)C(C)C)C(=O)N[C@@H](CC(C)C)[C@@H](O)C[C@@H](C)C(=O)N[C@H](C(=O)NCc1ccco1)C(C)C` (some centres unmarked) [MMI-225], the Ki under setting [1] worked out at 41 nM and the Ki under setting [2] was 25.7 nM.

As to `CSCC[C@H](NC(=O)C(C)Cn1nc(C)cc1C)C(=O)N[C@@H](CC(C)C)[C@@H](O)C[C@@H](C)C(=O)N[C@@H](CC(C)C)C(=O)NCc1ccco1` (some centres unmarked) [MMI-226], the Ki amounted to 110 nM under setting [1] and 68.9 nM under setting [2].

As to `CSCC[C@H](NC(=O)O[C@H]1CCOC1)C(=O)N[C@@H](CC(C)C)[C@@H](O)C[C@@H](C)C(=O)N[C@@H](CC(C)C)C(=O)NC(C)C` [MMI-227], the Ki by setting is: under setting [1], 721 nM; under setting [2], 452 nM.

In the case of `COCC[C@H](NC(=O)C(Cn1nc(C)cc1C)C(C)C)C(=O)N[C@@H](CC(C)C)[C@@H](O)C[C@@H](C)C(=O)N[C@H](C(=O)NCC(C)C)C(C)C` (some centres unmarked) [MMI-228], the Ki under setting [1] amounted to 176 nM and the Ki under setting [2] was 110 nM.

With `CC(C)C[C@H](NC(=O)[C@H](CC(N)=O)NC(=O)[C@@H](N)C(C)C)[C@@H](O)C[C@@H](C)C(=O)N[C@@H](C)C(=O)N[C@@H](CCC(=O)O)C(=O)O` [OM01-1] (H-VN[LeuΨ(S-CHOHCH2)Ala]AE-OH), the Ki (memapsin 2, read-out: Ki) was determined as 126 nM.

(Values after patent US20040121947A1, “Compounds which inhibit beta-secretase activity and methods of use thereof” (Oklahoma Medical Research Foundation, priority 2000, published 2004).)
